The values below come from patent US9808470B2, “Estrogenic components for use in the treatment of neurological disorders” (UNIVERSITE DE LIEGE, priority 2012, dated 2017).

For data set [1] the following is noted: octanol-water; depending on experimental settings; listed as estetrol; cited from earlier work.
A short description of data set [2]: Ex.4 therapeutic HIE rat model: brain weight. Conditions: PND14. In kind it is in vivo. How it is done:
Animals were then perfused transcardially with 0.9% saline solution at 4° C., and then with 4% paraformaldehyde in a 0.1-mol/L phosphate-buffered saline solution (pH 7.4) at 4° C. The brains were quickly isolated, weighed and immersed in the same fixative solution at 4° C. for 24 hours, dehydrated with a graded series of ethanol and xylene, and embedded in paraffin.
To study the therapeutic effect of estetrol, newborn rat pups were assigned to one of the following 6 groups at postnatal day 7: sham group (n=29), vehicle group (n=20), 1 mg/kg E4 group (n=16), 5 mg/kg E4 group (n=19), 10 mg/kg day E4 (n=17) and 50 mg/kg day E4 group (n=15). At postnatal day 7 animals were anesthetized with isoflurane (induction, 3.0%; maintenance, 1.5%), and the rat pups from vehicle and E4 groups passed through surgery encompassing left common carotid artery double ligation and cut. After surgery, the pups were returned to their dams and allowed to recover for 1 hour. The pups were then placed in a humidified hypoxic in vivo cabinet (CoyLab). Hypoxia was produced by the inhalation of 11%-8% of oxygen balanced by nitrogen at decreased concentration of oxygen for 20 minutes, followed by inhalation of 8% oxygen and 92% nitrogen at constant concentration for 35 minutes. All the manipulations were performed at 37° C.
Upon retrieval from the hypoxia chamber the rat pups were injected intraperitoneally either by vehicle (vehicle group) or by E4 (1 mg/kg, 5 mg/kg, 10 mg/kg or 50 mg/kg) in accordance to the group assignment. The animals from the sham group went through similar procedures but proceeded neither left common carotid artery ligation and cut followed by hypoxia nor vehicle or estetrol administration. Rat pups recovered with their dams until being sacrificed at postnatal day 14.

Data set [3] has as its system intact cells in hippocampus and cortex. The data set can be described thus: Ex.8 neuroprotective HIE rat model: intact cell counting. In kind it is in vivo. The protocol:
Newborn rat pups were assigned to one of the following 14 groups from postnatal day 4 (FIG. 23(A)): Sham group (n=12), Vehicle group (n=17), 5 mg/kg/day E4 (n=13), 10 mg/kg/day E4 (n=10), 5 mg/kg/day E4+1.6 mg/kg/day PROG (n=11), 10 mg/kg/day E4+1.6 mg/kg/day PROG (n=11), 5 mg/kg/day E4+16 mg/kg/day PROG (n=11), 10 mg/kg/day E4+16 mg/kg/day PROG (n=11), 5 mg/kg/day E4+136 ng//kg/day E2 (n=11), 10 mg/kg/day E4+136 ng/kg/day E2 (n=11), 5 mg/kg/day E4+1.6 mg/kg/day PROG+136 ng/kg/day (n=13) E2, 10 mg/kg/day E4+1.6 mg/kg/day PROG+136 ng/kg/day E2 (n=16), 5 mg/kg/day E4+16 mg/kg/day PROG+136 ng/kg/day E2 (n=11), 10 mg/kg/day E4+16 mg/kg/day PROG+136 ng/kg/day groups (n=13). Intraperitoneal injections of the pups from study groups were performed from postnatal day 4 to postnatal day 7 inclusively. At day 7, 30 minutes after last injection, animals were anesthetized with isoflurane (induction, 3.0%; maintenance, 1.5%), and the rat pups from vehicle and all the other groups, except the sham group, passed through surgery encompassing left common carotid artery double ligation and cut. After the procedure, the pups were returned to their dams and were allowed to recover for 1 hour. The pups were then placed in the humidified hypoxic in vivo cabinet (CoyLab, Grass Lake, Mich., USA). Hypoxia was produced by the inhalation of 11%-8% of oxygen balanced by nitrogen at decreased concentration of oxygen for 20 minutes, followed by inhalation of 8% oxygen and 92% nitrogen at constant concentration for 35 minutes. All the manipulations were performed at 37° C. The Sham group went through similar procedures without left common carotid artery ligation followed by neither hypoxia nor injection. […]
Intact cell counting was performed on hematoxylin-eosin-stained sections of the rat pups brains at magnification 400× in 3 fields of the respective brain area. […] The sections were analyzed with the aid of a microscope (Olympus BX51, Olympus, Tokyo, Japan), an image scanner (DotSlide Digital Virtual Microscopy, Olympus, Germany) and ImageJ software (NIH, US). […]

Where “and” joins values, the source holds several entries; their conditions need not be identical. Equal values may be shown once.

Turning to `C[C@]12CC[C@@H]3c4ccc(O)cc4CC[C@H]3[C@@H]1[C@@H](O)[C@@H](O)[C@@H]2O` [E4, 1,3,5(10)-estratrien-3,15α,16α,17β-tetrol], the “Pow Log” value in data set [1] is 1.47 and 1.695. In addition, the brain weight turned out to be 1.099 ± 0.037 g in data set [2] (1 mg/kg E4 single ip dose after HI), 1.06 ± 0.035 g in data set [2] (5 mg/kg E4 single ip dose after HI), 1.12 ± 0.33 g in data set [2] (10 mg/kg E4 single ip dose after HI) and 1.163 ± 0.025 g in data set [2] (50 mg/kg E4 single ip dose after HI). Further, the “number of intact cells per visual field” value in data set [3] (5 mg/kg/day E4, SGZ) was 72.10±5.93; in data set [3] (10 mg/kg/day E4, DG), 227.30±14.18; in data set [3] (10 mg/kg/day E4, SGZ), 86.10±5.84.
